Measured values: patent US20160354303A1, “Method, Compositions, And Kit For Modulating The Appearance Of Volume On Keratin Surfaces” (ELC MANAGEMENT LLC, priority 2014, published 2016)

System: Human subcutaneous preadipocytes
Assay: Adipocyte differentiation assay: inhibition of adipogenesis, glycerol liberated from triglyceride (Zen-Bio)
Assay type: cell-based
Conditions: for adipogenesis: inhibition in presence of 1 uM Rosiglitazone, OD at 540 nm, glycerol liberated from triglyceride, FIGS. 2 and 3
Procedure: Conjugated linoleic acid and resveratrol were tested for their ability to promote the appearance of decreased volume. Cell culture, treatment, and differentiation assay was performed by Zen-Bio, RTF, NC. Human subcutaneous preadipocytes, lot number: were cultured in 96-well plates. The donor information is as follows: • Lot #: L061103 • […] • […] • B.M.I.: 25.2 Stimulation was treated in the presence of 0.1 uM Rosiglitazone Maleate. Inhibition was treated in the presence of 1.0 uM Rosiglitazone Maleate. Day 1: Plated cells and allowed cells to adhere. Day 2: Changed medium to Initiation medium containing the compounds or controls. Day 5: Changed medium to Adipocyte medium with the compounds. Day 8: Changed medium to Adipocyte medium with the compounds. Day 11: Changed medium to Adipocyte medium with the compounds. Day 13: Cells were washed with PBS and lysed with the lysis buffer. Reagent B was added to each well and the cells were incubated at 37° C. for 2 hours. Aliquots of the lysates were diluted with PBS, then Reagent A was added to each well. The optical density was read at 540 nm after 15 minutes. The reagent measures the amount of glycerol liberated from triglyceride. Data were analyzed using a one-way ANOVA and significant means were tested by Bonferroni multiple comparison test using Instat software. Cell culture, treatment, and differentiation assay was performed by Zen-Bio, RTF, NC. Human subcutaneous preadipocytes, lot number: were cultured in 96-well plates. The donor information is as follows: • Lot#: SL0029 • Gender: Female (all lots) […] ([…]) Human subcutaneous preadipocytes were cultured in 96-well plates. Day 1: Plated cells and allowed cells to adhere. Day 2: Changed medium to Differentiation medium containing the compounds or controls. (0.1 uM Rosi for stimulation or 1 uM Rosi for inhibition) Day 9: Changed medium to Adipocyte medium plus compounds. Day 12: Changed medium to Adipocyte medium plus compounds. Day 16: Cells were washed with PBS and lysed with the lysis buffer. […] The optical density was read at 540 nm after 15 minutes. […]

In the case of `Oc1ccc(C=Cc2cc(O)cc(O)c2)cc1` [resveratrol], the human adipocyte generation (after treatment with resveratrol, FIG. 2 legend) is reported as “decrease in human adipocyte generation” and the adipogenesis is reported as “effective in reducing adipogenesis”.

In the case of conjugated linoleic acid, the adipogenesis is reported as “effective in reducing adipogenesis”.
